Target: T1, mouse TRPM3α2 (mTRPM3) ion channel (Mus musculus, UniProt J9SQF3)
T1 construct: expressed in transfected cells; host or cells: flip-in HEK293
Assay: TRPM3 ion channel driven Ca2+ uptake, Fluo-4 AM assay, PS-stimulated (mTRPM3)
Type: cell-based
Settings: TRPM3 overexpressing flip-in HEK293 cells stimulated with Pregnenolone sulfate (PS) 50 μM, activity ranges A, B, C
How it was run: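 Flp-In HEK293 cells overexpressing mTRPM3α2 were added, in Ca²⁺-free Krebs, to wells already holding compound and 50 μM pregnenolone sulfate in Ca²⁺-containing Krebs. Fluo-4 AM fluorescence (ex 485/em 535 nm) was read immediately. Percent inhibition was computed from RFU relative to PS/vehicle wells and a positive-control inhibitor.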

T1 sequence (J9SQF3 1-1709 isoform J9SQF3-12): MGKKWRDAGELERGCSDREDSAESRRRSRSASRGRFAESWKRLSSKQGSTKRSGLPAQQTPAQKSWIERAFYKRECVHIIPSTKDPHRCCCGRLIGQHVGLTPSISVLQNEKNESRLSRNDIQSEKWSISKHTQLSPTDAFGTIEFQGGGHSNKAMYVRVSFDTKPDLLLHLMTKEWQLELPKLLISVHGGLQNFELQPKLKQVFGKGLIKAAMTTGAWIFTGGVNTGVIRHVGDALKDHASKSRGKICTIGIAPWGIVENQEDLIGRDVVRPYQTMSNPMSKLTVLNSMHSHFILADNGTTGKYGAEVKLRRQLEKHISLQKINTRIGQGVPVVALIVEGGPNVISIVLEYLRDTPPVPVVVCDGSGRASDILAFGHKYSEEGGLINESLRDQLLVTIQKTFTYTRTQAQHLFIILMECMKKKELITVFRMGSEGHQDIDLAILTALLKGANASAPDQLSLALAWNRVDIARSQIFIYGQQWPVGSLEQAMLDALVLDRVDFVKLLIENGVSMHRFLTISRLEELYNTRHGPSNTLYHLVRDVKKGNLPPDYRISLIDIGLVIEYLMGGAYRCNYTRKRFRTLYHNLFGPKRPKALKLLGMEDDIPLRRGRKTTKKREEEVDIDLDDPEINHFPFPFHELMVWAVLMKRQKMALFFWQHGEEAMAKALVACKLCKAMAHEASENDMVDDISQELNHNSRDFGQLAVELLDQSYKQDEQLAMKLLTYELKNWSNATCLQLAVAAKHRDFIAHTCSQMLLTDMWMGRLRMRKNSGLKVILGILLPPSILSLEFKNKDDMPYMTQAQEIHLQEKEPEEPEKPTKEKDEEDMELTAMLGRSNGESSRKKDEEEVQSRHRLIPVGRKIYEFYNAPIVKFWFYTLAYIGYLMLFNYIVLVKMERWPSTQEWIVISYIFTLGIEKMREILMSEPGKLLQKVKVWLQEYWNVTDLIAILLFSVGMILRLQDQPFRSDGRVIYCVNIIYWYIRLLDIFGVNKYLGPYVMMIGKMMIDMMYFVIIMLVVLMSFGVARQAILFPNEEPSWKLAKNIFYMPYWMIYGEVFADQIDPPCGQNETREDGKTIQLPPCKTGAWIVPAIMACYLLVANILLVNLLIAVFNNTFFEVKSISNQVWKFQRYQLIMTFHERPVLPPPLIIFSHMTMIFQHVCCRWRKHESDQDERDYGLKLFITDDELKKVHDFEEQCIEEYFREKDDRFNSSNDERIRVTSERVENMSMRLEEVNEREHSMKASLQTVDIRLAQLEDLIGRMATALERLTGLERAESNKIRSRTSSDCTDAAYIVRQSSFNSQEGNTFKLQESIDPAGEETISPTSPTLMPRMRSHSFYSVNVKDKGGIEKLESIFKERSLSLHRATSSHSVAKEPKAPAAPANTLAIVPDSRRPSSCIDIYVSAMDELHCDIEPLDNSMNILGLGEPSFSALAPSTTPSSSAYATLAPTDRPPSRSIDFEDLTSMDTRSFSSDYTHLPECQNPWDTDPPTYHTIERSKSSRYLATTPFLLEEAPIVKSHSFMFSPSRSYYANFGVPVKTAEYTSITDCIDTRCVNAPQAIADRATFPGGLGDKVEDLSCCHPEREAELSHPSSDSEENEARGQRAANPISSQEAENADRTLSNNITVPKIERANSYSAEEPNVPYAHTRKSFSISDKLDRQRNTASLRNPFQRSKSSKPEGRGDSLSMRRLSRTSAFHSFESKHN

Compound | IC50
Cc1oc2ccc(OCc3ccccc3)cc2c1C(=O)NC1CCN(C)C(=O)C1 (stereo not drawn) [Cpd 146, 5-(benzyloxy)-2-methyl-N-(1-methyl-2-oxopiperidin-4-yl)benzofuran-3-carboxamide] | 1 to 20 µM
Cc1oc2ccc(OCc3ccc(C(F)(F)F)cc3)cc2c1C(=O)O [Cpd 026, 2-methyl-5-((4-(trifluoromethyl)benzyl)oxy)benzofuran-3-carboxylic acid] | > 20 µM
O=C(O)c1c(C2CCCC2)oc2ccc(OCc3ccccc3)cc12 [Cpd 023, 5-(benzyloxy)-2-cyclopentylbenzofuran-3-carboxylic acid] | > 20 µM
Cc1oc2ccc(OCc3ccccc3)cc2c1C(=O)NC1CCC(O)C1 (stereo not drawn) [Cpd 086, 5-(benzyloxy)-N-(3-hydroxycyclopentyl)-2-methylbenzofuran-3-carboxamide] | < 1 µM
Cc1oc2ccc(OCc3ccccc3)cc2c1C(=O)NCc1cnccn1 [Cpd 102, 5-(benzyloxy)-2-methyl-N-(pyrazin-2-ylmethyl)benzofuran-3-carboxamide] | 1 to 20 µM
CCN1CCC[C@H]1CNC(=O)c1c(C)oc2ccc(OCc3ccccc3)cc12 [Cpd 152, (S)-5-(benzyloxy)-N-((l-ethylpyrrolidin-2-yl)methyl)-2-methylbenzofuran-3-carboxamide] | 1 to 20 µM
Cc1oc2ccc(OCc3ccccc3)cc2c1C(=O)Nc1ccccc1 [Cpd 058, 5-(benzyloxy)-2-methyl-N-phenylbenzofuran-3-carboxamide] | < 1 µM
Cc1cc(CNC(=O)c2c(C)oc3ccc(OCc4ccccc4)cc23)no1 [Cpd 105, 5-(benzyloxy)-2-methyl-N-((5-methylisoxazol-3-yl)methyl)benzofuran-3-carboxamide] | < 1 µM
Cc1oc2ccc(OCc3ccccc3)cc2c1C(=O)N[C@H]1CC[C@H](N)CC1 [Cpd 120, N-(trans-4-aminocyclohexyl)-5-(benzyloxy)-2-methylbenzofuran-3-carboxamide] | 1 to 20 µM
Cc1oc2ccc(OCc3ccccc3)cc2c1C(=O)N[C@H]1CC[C@@H](N)CC1 [Cpd 116, N-(cis-4-aminocyclohexyl)-5-(benzyloxy)-2-methylbenzofuran-3-carboxamide] | < 1 µM
Cc1oc2ccc(OCc3ccccc3)cc2c1C(=O)N[C@H]1C[C@H]2CC[C@@H](C1)N2 [Cpd 143, 5-(benzyloxy)-N-((1R,3r,5S)-8-azabicyclo[3.2.1]octan-3-yl)-2-methylbenzofuran-3-carboxamide] | < 1 µM
Cc1oc2ccc(OCc3ccccc3)cc2c1C(=O)NC1CCN(C)C(C)C1 (stereo not drawn) [Cpd 155, 5-(benzyloxy)-N-(1,2-dimethylpiperidin-4-yl)-2-methylbenzofuran-3-carboxamide] | < 1 µM
Cc1oc2ccc(OCc3ccccc3)cc2c1C(=O)NCC1CCNCC1 [Cpd 121, 5-(benzyloxy)-2-methyl-N-(piperidin-4-ylmethyl)benzofuran-3-carboxamide] | 1 to 20 µM
Cc1oc2ccc(OCc3cccc(F)c3F)cc2c1C(=O)NC1CCNC1=O (stereo not drawn) [Cpd 171, 5-((2,3-difluorobenzyl)oxy)-2-methyl-N-(2-oxopyrrolidin-3-yl)benzofuran-3-carboxamide] | < 1 µM
O=C(O)c1coc2ccc(OCc3ccccc3)cc12 [Cpd 001, 5-(benzyloxy)benzofuran-3-carboxylic acid] | 1 to 20 µM
Cc1oc2ccc(OCc3ccccc3)cc2c1C(=O)NCCN1CCOCC1 [Cpd 165, 5-(benzyloxy)-2-methyl-N-(2-morpholinoethyl)benzofuran-3-carboxamide] | 1 to 20 µM
Cc1oc2ccc(OCc3ccccc3)cc2c1C(=O)NC1CN2CCC1CC2 (stereo not drawn) [Cpd 142, 5-(benzyloxy)-2-methyl-N-(quinuclidin-3-yl)benzofuran-3-carboxamide] | < 1 µM
Cc1oc2ccc(OCc3ccccc3)cc2c1C(=O)Nc1ccn(C)n1 [Cpd 064, 5-(benzyloxy)-2-methyl-N-(1-methyl-1H-pyrazol-3-yl)benzofuran-3-carboxamide] | < 1 µM
Cc1oc2ccc(OCc3cccc(F)c3)cc2c1C(=O)NS(=O)(=O)C1CC1 [Cpd 176, N-(cyclopropylsulfonyl)-5-((3-fluorobenzyl)oxy)-2-methylbenzofuran-3-carboxamide] | < 1 µM
Cc1oc2ccc(OCc3ccccc3)cc2c1C(=O)Nc1ccncc1 [Cpd 060, 5-(benzyloxy)-2-methyl-N-(pyridin-4-yl)benzofuran-3-carboxamide] | < 1 µM

Now from value to compound:

IC50 | Compound
1 to 20 µM | Cc1oc2ccc(OCc3ccccc3S(C)(=O)=O)cc2c1C(=O)NC1(CO)CCOCC1 [Cpd 332, N-(4-(hydroxymethyl)tetrahydro-2H-pyran-4-yl)-2-methyl-5-((2-(methylsulfonyl)benzyl)oxy)benzofuran-3-carboxamide]
< 1 µM | Cc1oc2ccc(OCc3ccccc3F)cc2c1C(=O)NC1CCNCC1(F)F (stereo not drawn) [Cpd 201, N-(3,3-difluoropiperidin-4-yl)-5-((2-fluorobenzyl)oxy)-2-methylbenzofuran-3-carboxamide]
< 1 µM | COC(=O)C1(NC(=O)c2c(C)oc3ccc(OCc4ccccc4)cc23)CCOCC1 [Cpd 212, methyl 4-(5-(benzyloxy)-2-methylbenzofuran-3-carboxamido)tetrahydro-2H-pyran-4-carboxylate]
< 1 µM | Cc1oc2ccc(OC(C)c3ccccc3)cc2c1C(=O)N[C@@H](CO)C(N)=O (single isomer, unassigned) [Cpd 336-Dia 2]
< 1 µM | Cc1oc2ccc(OCc3ccccc3F)cc2c1C(=O)NC1(C(N)=O)CCOC1 (single isomer, unassigned) [Cpd 323-En 1, N-(3-carbamoyltetrahydrofuran-3-yl)-5-((2-fluorobenzyl)oxy)-2-methylbenzofuran-3-carboxamide]
1 to 20 µM | Cc1noc(C)c1CCNC(=O)c1c(C)oc2ccc(OCc3ccccc3)cc12 [Cpd 178, 5-(benzyloxy)-N-(2-(3,5-dimethylisoxazol-4-yl)ethyl)-2-methylbenzofuran-3-carboxamide]
< 1 µM | Cc1oc2ccc(OCc3ccccc3)c(C)c2c1C(=O)NC1CNCC1(F)F (single isomer, unassigned) [Cpd 299-En 2, 5-(benzyloxy)-N-(4,4-difluoropyrrolidin-3-yl)-2,4-dimethylbenzofuran-3-carboxamide]
< 1 µM | Cc1oc2ccc(OCc3ccccc3F)cc2c1C(=O)NC1(C(N)=O)CCC1 [Cpd 322, N-(1-carbamoylcyclobutyl)-5-((2-fluorobenzyl)oxy)-2-methylbenzofuran-3-carboxamide]
1 to 20 µM | Cc1oc2ccc(OCc3ccccc3C(F)(F)F)cc2c1C(=O)NC1CCN(C)CC1 [Cpd 233, 2-methyl-N-(1-methylpiperidin-4-yl)-5-((2-(trifluoromethyl)benzyl)oxy)benzofuran-3-carboxamide]
< 1 µM | Cc1oc2ccc(OCc3ccccc3F)cc2c1C(=O)NC1(C(N)=O)CCOC1 (single isomer, unassigned) [Cpd 323-En 2, N-(3-carbamoyltetrahydrofuran-3-yl)-5-((2-fluorobenzyl)oxy)-2-methylbenzofuran-3-carboxamide]
< 1 µM | Cc1oc2ccc(OCc3ccccc3F)cc2c1C(=O)N[C@@H]1COC[C@H]1O (single isomer, unassigned) [Cpd 330-En 1]
< 1 µM | COc1ccccc1COc1ccc2oc(C)c(C(=O)NS(=O)(=O)C3CC3)c2c1 [Cpd 199, N-(cyclopropylsulfonyl)-5-((2-methoxybenzyl)oxy)-2-methylbenzofuran-3-carboxamide]
> 20 µM | Cc1oc2ccc(OCc3ccccc3OCCN(C)C)cc2c1C(=O)NC1CCN(C)CC1 [Cpd 250, 5-((2-(2-(dimethylamino)ethoxy)benzyl)oxy)-2-methyl-N-(1-methylpiperidin-4-yl)benzofuran-3-carboxamide]
1 to 20 µM | Cc1oc2ccc(OCc3c(F)cccc3F)cc2c1C(=O)N[C@H]1CCN(C(=O)OC(C)(C)C)C1 [Cpd 257, tert-butyl (S)-3-(5-((2,6-difluorobenzyl)oxy)-2-methylbenzofuran-3-carboxamido)pyrrolidine-1-carboxylate]
1 to 20 µM | Cc1oc2ccc(OCc3ccccc3)cc2c1C(=O)NC1CCN(C2COC2)CC1 [Cpd 208, 5-(benzyloxy)-2-methyl-N-(1-(oxetan-3-yl)piperidin-4-yl)benzofuran-3-carboxamide]
> 20 µM | CN1CCC(NC(=O)c2c(C3CCCC3)oc3ccc(OCc4ccccc4)cc23)CC1 [Cpd 221, 5-(benzyloxy)-2-cyclopentyl-N-(1-methylpiperidin-4-yl)benzofuran-3-carboxamide]
1 to 20 µM | Cc1oc2ccc(OCc3ccccc3)cc2c1C(=O)NC1(C(=O)O)CCOCC1 [Cpd 193, 4-(5-(benzyloxy)-2-methylbenzofuran-3-carboxamido)tetrahydro-2H-pyran-4-carboxylic acid]
> 20 µM | Cc1oc2ccc(OCc3ccccc3N3CCN(C)CC3)cc2c1C(=O)NC1CCNC1=O (stereo not drawn) [Cpd 245, 2-methyl-5-((2-(4-methylpiperazin-1-yl)benzyl)oxy)-N-(2-oxopyrrolidin-3-yl)benzofuran-3-carboxamide]
< 1 µM | Cc1oc2ccc(OC(CO)c3ccccc3F)cc2c1C(=O)N[C@@H](CO)C(N)=O (single isomer, unassigned) [Cpd 335-Dia 2]
> 20 µM | Cc1cc2oc(C)c(C(=O)NC3CNCC3(F)F)c2cc1OCc1ccccc1 (single isomer, unassigned) [Cpd 303-En 2, 5-(benzyloxy)-N-(4,4-difluoropyrrolidin-3-yl)-2,6-dimethylbenzofuran-3-carboxamide]
< 1 µM | Cc1oc2ccc(OCc3ccccc3F)cc2c1C(=O)N[C@@H]1COC[C@H]1O (relative stereo) [Cpd 330-En 2]
< 1 µM | Cc1oc2ccc(OCc3cccc(F)c3F)cc2c1C(=O)NC1CNCC1(F)F (stereo not drawn) [Cpd 211, 5-((2,3-difluorobenzyl)oxy)-N-(4,4-difluoropyrrolidin-3-yl)-2-methylbenzofuran-3-carboxamide]

From patent US20230391739A1, “ARYL DERIVATIVES FOR TREATING TRPM3 MEDIATED DISORDERS” (Katholieke Universiteit Leuven, priority 2020, published 2023)
